Biological target: T1, K-Ras G12C (Homo sapiens, UniProt P01116, G12C)
T1 construct: This protein contained 188 amino acids in total, including an N-terminal 6-Histidine tag; made in house; host or cells: E. coli BL21
Experiment: CAF assay (% CAF; method in Example 7, not in this part)
Assay type: binding
Details: 10 uM compound, 1 h incubation

Row | SMILES | % CAF @ 10 uM, 1h [%]
1 | C=CC(=O)N1C[C@H](C)N(c2nc(=O)n3c4c(c(-c5cc(F)c(F)cc5F)c(Cl)cc24)SC[C@@H]3CC2CCN(CC(F)F)CC2)C[C@H]1C [Example 476, (3S)-7-((2S,5R)-4-acryloyl-2,5-dimethylpiperazin-1-yl)-9-chloro-3-((1-(2,2-difluoroethyl)piperidin-4-yl)methyl)-10-(2,4,5-trifluorophenyl)-2H-[1,4]thiazino[2,3,4-ij]quinazolin-5(3H)-one] | 53.8
2 | C=CC(=O)N1C[C@H](C)N(c2nc(=O)n3c4c(c(-c5ccc(F)cc5F)c(Cl)cc24)SC[C@@H]3CC2CCN(CC(F)F)CC2)C[C@H]1C [Example 477, (3S)-7-((2S,5R)-4-acryloyl-2,5-dimethylpiperazin-1-yl)-9-chloro-3-((1-(2,2-difluoroethyl)piperidin-4-yl)methyl)-10-(2,4-difluorophenyl)-2H-[1,4]thiazino[2,3,4-ij]quinazolin-5(3H)-one] | 63.5
3 | C=CC(=O)N1C[C@H](C)N(c2nc(=O)n3c4c(c(-c5ccc(F)cc5F)c(Cl)cc24)SC[C@@H]3CC2CCN(C3CC3)CC2)C[C@H]1C [Example 478, (3S)-7-((2S,5R)-4-acryloyl-2,5-dimethylpiperazin-1-yl)-9-chloro-3-((1-cyclopropylpiperidin-4-yl)methyl)-10-(2,4-difluorophenyl)-2H-[1,4]thiazino[2,3,4-ij]quinazolin-5(3H)-one] | 70.7
4 | C=CC(=O)N1CCN(c2nc(=O)n3c4c(c(-c5ccc(F)cc5F)c(Cl)cc24)SC[C@H]3COCOC)[C@@H](C)C1 [Example 479, (3R)-7-((S)-4-acryloyl-2-methylpiperazin-1-yl)-9-chloro-10-(2,4-difluorophenyl)-3-((methoxymethoxy)methyl)-2H-[1,4]thiazino[2,3,4-ij]quinazolin-5(3H)-one] | 42
5 | C=CC(=O)N1CCN(c2nc(=O)n3c4c(c(-c5cc(F)c(F)cc5F)c(Cl)cc24)SC[C@@H]3CN2CCN(CC(F)F)CC2)[C@@H](C)C1 [Example 480, (3S)-7-((S)-4-acryloyl-2-methylpiperazin-1-yl)-9-chloro-3-((4-(2,2-difluoroethyl)piperazin-1-yl)methyl)-10-(2,4,5-trifluorophenyl)-2H-[1,4]thiazino[2,3,4-ij]quinazolin-5(3H)-one] | 61.2
6 | C=CC(=O)N1C[C@H](C)N(c2nc(=O)n3c4c(c(-c5ccc(F)cc5)c(C(F)(F)F)cc24)SC[C@@H]3CC2CN(CC(F)F)C2)C[C@H]1C [Example 481, (S)-7-((2S,5R)-4-acryloyl-2,5-dimethylpiperazin-1-yl)-3-((1-(2,2-difluoroethyl)azetidin-3-yl)methyl)-10-(4-fluorophenyl)-9-(trifluoromethyl)-2,3-dihydro-5H-[1,4]thiazino[2,3,4-ij]quinazolin-5-one] | 59.4
7 | C=CC(=O)N1C2CC(=O)CC1CN(c1nc(=O)n3c4c(c(-c5ccc(F)cc5F)c(C(F)(F)F)cc14)SCCC3)C2 [Example 486, 8-(9-acryloyl-7-oxo-3,9-diazabicyclo[3.3.1]nonan-3-yl)-11-(2,4-difluorophenyl)-10-(trifluoromethyl)-3,4-dihydro-2H,6H-[1,4]thiazepino[2,3,4-ij]quinazolin-6-one] | 95
8 | C=CC(=O)N1CCN(c2nc(=O)n3c4c(c(-c5ccc(F)cc5F)c(Cl)cc24)SC[C@@H](OC)C3)[C@@H](C)C1 [Example 487, (3S)-8-((S)-4-acryloyl-2-methylpiperazin-1-yl)-10-chloro-11-(2,4-difluorophenyl)-3-methoxy-3,4-dihydro-2H,6H-[1,4]thiazepino[2,3,4-ij]quinazolin-6-one] | 96
9 | C=CC(=O)N1CCN(c2nc(=O)n3c4c(c(-c5ccc(F)cc5F)c(Cl)cc24)SC[C@H](OC)C3)[C@@H](C)C1 [Example 488, (3R)-8-((S)-4-acryloyl-2-methylpiperazin-1-yl)-10-chloro-11-(2,4-difluorophenyl)-3-methoxy-3,4-dihydro-2H,6H-[1,4]thiazepino[2,3,4-ij]quinazolin-6-one] | 96
10 | C=CC(=O)N1CCN(c2nc(=O)n3c4c(c(-c5ccc(F)cc5F)c(C(F)(F)F)cc24)SC[C@@H](OC)C3)CC1 [Example 489, (3S)-8-(4-acryloylpiperazin-1-yl)-11-(2,4-difluorophenyl)-3-methoxy-10-(trifluoromethyl)-3,4-dihydro-2H,6H-[1,4]thiazepino[2,3,4-ij]quinazolin-6-one] | 96
11 | C=CC(=O)N1C[C@H](C)N(c2nc(=O)n3c4c(c(-c5cc(F)c(F)cc5F)c(C(F)(F)F)cc24)SC[C@@H]3COC)C[C@H]1C [Example 491, (3S)-7-((2S,5R)-4-acryloyl-2,5-dimethylpiperazin-1-yl)-3-(methoxymethyl)-9-(trifluoromethyl)-10-(2,4,5-trifluorophenyl)-2H-[1,4]thiazino[2,3,4-ij]quinazolin-5(3H)-one] | 60
12 | C=CC(=O)N1C[C@H](C)N(c2nc(=O)n3c4c(c(-c5cc(Cl)c(F)cc5F)c(C(F)(F)F)cc24)SC[C@@H]3COC)C[C@H]1C [Example 492, (3S)-7-((2S,5R)-4-acryloyl-2,5-dimethylpiperazin-1-yl)-10-(5-chloro-2,4-difluorophenyl)-3-(methoxymethyl)-9-(trifluoromethyl)-2H-[1,4]thiazino[2,3,4-ij]quinazolin-5(3H)-one] | 63.2
13 | C=CC(=O)N1C[C@H](C)N(c2nc(=O)n3c4c(c(-c5ccc(F)cc5F)c(C(F)(F)F)cc24)SC[C@@H]3COC)C[C@H]1C [Example 493, (3S)-7-((2S,5R)-4-acryloyl-2,5-dimethylpiperazin-1-yl)-10-(2,4-difluorophenyl)-3-(methoxymethyl)-9-(trifluoromethyl)-2H-[1,4]thiazino[2,3,4-ij]quinazolin-5(3H)-one] | 78.6
14 | C=CC(=O)N1C[C@H](C)N(c2nc(=O)n3c4c(c(-c5ccc(F)cc5F)c(Cl)cc24)SC[C@@H]3COC)C[C@H]1C [Example 494, (3S)-7-((2S,5R)-4-acryloyl-2,5-dimethylpiperazin-1-yl)-9-chloro-10-(2,4-difluorophenyl)-3-(methoxymethyl)-2H-[1,4]thiazino[2,3,4-ij]quinazolin-5(3H)-one] | 68.7
15 | C=CC(=O)N1C[C@H](C)N(c2nc(=O)n3c4c(c(-c5cc(Cl)c(F)cc5F)c(Cl)cc24)SC[C@@H]3CN2CCN(CC(F)F)CC2)C[C@H]1C [Example 495, (3S)-7-((2S,5R)-4-acryloyl-2,5-dimethylpiperazin-1-yl)-9-chloro-10-(5-chloro-2,4-difluorophenyl)-3-((4-(2,2-difluoroethyl)piperazin-1-yl)methyl)-2H-[1,4]thiazino[2,3,4-ij]quinazolin-5(3H)-one] | 50.8
16 | C=CC(=O)N1C[C@H](C)N(c2nc(=O)n3c4c(c(-c5cc(Cl)c(F)cc5F)c(Cl)cc24)SC[C@@H]3COC)C[C@H]1C [Example 496, (3S)-7-((2S,5R)-4-acryloyl-2,5-dimethylpiperazin-1-yl)-9-chloro-10-(5-chloro-2,4-difluorophenyl)-3-(methoxymethyl)-2H-[1,4]thiazino[2,3,4-ij]quinazolin-5(3H)-one] | 65.3
17 | C=CC(=O)N1C[C@H](C)N(c2nc(=O)n3c4c(c(-c5ccc(F)cc5)c(C(F)(F)F)cc24)SC[C@@H]3COC)C[C@H]1C [Example 497, (S)-7-((2S,5R)-4-acryloyl-2,5-dimethylpiperazin-1-yl)-10-(4-fluorophenyl)-3-(methoxymethyl)-9-(trifluoromethyl)-2H-[1,4]thiazino[2,3,4-ij]quinazolin-5(3H)-one] | 85.1
18 | C=CC(=O)N1C[C@H](C)N(c2nc(=O)n3c4c(c(-c5ccc(F)cc5F)c(C(F)(F)F)cc24)SC[C@@H]3COCCOC)C[C@H]1C [Example 498, (3S)-7-((2S,5R)-4-acryloyl-2,5-dimethylpiperazin-1-yl)-10-(2,4-difluorophenyl)-3-((2-methoxyethoxy)methyl)-9-(trifluoromethyl)-2H-[1,4]thiazino[2,3,4-ij]quinazolin-5(3H)-one] | 81.2
19 | C=CC(=O)N1C[C@H](C)N(c2nc(=O)n3c4c(c(-c5cc(Cl)c(F)cc5F)c(Cl)cc24)SC[C@@H]3CN2CCN(C3CC3)CC2)C[C@H]1C [Example 499, (3S)-7-((2S,5R)-4-acryloyl-2,5-dimethylpiperazin-1-yl)-9-chloro-10-(5-chloro-2,4-difluorophenyl)-3-((4-cyclopropylpiperazin-1-yl)methyl)-2H-[1,4]thiazino[2,3,4-ij]quinazolin-5(3H)-one] | 28
20 | C=CC(=O)N1C[C@H](C)N(c2nc(=O)n3c4c(c(-c5cc(Cl)c(F)cc5F)c(Cl)cc24)SC[C@@H]3CN2C[C@@H]3C[C@H]2CO3)C[C@H]1C [Example 500, (3S)-3-((1S,4S)-2-oxa-5-azabicyclo[2.2.1]heptan-5-ylmethyl)-7-((2S,5R)-4-acryloyl-2,5-dimethylpiperazin-1-yl)-9-chloro-10-(5-chloro-2,4-difluorophenyl)-2H-[1,4]thiazino[2,3,4-ij]quinazolin-5(3H)-one] | 50.6
21 | C=CC(=O)N1C[C@H](C)N(c2nc(=O)n3c4c(c(-c5ccc(F)cc5F)c(Cl)cc24)SC[C@@H]3COCCOC)C[C@H]1C [Example 501, (3S)-7-((2S,5R)-4-acryloyl-2,5-dimethylpiperazin-1-yl)-9-chloro-10-(2,4-difluorophenyl)-3-((2-methoxyethoxy)methyl)-2H-[1,4]thiazino[2,3,4-ij]quinazolin-5(3H)-one] | 66.8
22 | C=CC(=O)N1C[C@H](C)N(c2nc(=O)n3c4c(c(-c5cc(Cl)c(F)cc5F)c(Cl)cc24)SC[C@@H]3COCCOC)C[C@H]1C [Example 502, (3S)-7-((2S,5R)-4-acryloyl-2,5-dimethylpiperazin-1-yl)-9-chloro-10-(5-chloro-2,4-difluorophenyl)-3-((2-methoxyethoxy)methyl)-2H-[1,4]thiazino[2,3,4-ij]quinazolin-5(3H)-one] | 65.1

— patent US20230107642A1 (Erasca, Inc., priority 2020, published 2023)
